PubChem BioAssay (NCI)
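48-hour exposure; five concentrations; linearly interpolated endpoints. At the GI50, growth is halved. The concentration for full growth arrest is given as TGI.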

Tests used:
Assay in all cases: NCI tumour cell line growth inhibition, 48 h
[1] = test system: RPMI-8226 leukemia
[2] = test system: K-562 leukemia
[3] = test system: HS 578T breast
[4] = test system: SK-MEL-2 melanoma
[5] = test system: HT29 colon
[6] = test system: U251 CNS
[7] = test system: SK-MEL-5 melanoma
[8] = test system: SR leukemia
[9] = test system: MOLT-4 leukemia
[10] = test system: CCRF-CEM leukemia
[11] = test system: HCC-2998 colon
[12] = test system: OVCAR-8 ovarian
[13] = test system: SF-539 CNS
[14] = test system: A549 NSCLC
[15] = test system: MALME-3M melanoma
[16] = test system: OVCAR-3 ovarian
[17] = test system: SW-620 colon
[18] = test system: NCI-H460 lung
[19] = test system: NCI-H522 lung
[20] = test system: KM12 colon
[21] = test system: MCF7 breast
[22] = test system: SF-268 CNS
[23] = test system: PC-3 prostate
[24] = test system: NCI-H226 lung
[25] = test system: NCI-H23 lung
[26] = test system: HOP-62 NSCLC
[27] = test system: SF-295 CNS
[28] = test system: SNB-75 CNS
[29] = test system: SK-MEL-28 melanoma
[30] = test system: HL-60(TB) leukemia
[31] = test system: TK-10 renal
[32] = test system: SN12C renal
[33] = test system: HCT-116 colon
[34] = test system: 786-0 renal
[35] = test system: UACC-257 melanoma
[36] = test system: HCT-15 colon
[37] = test system: OVCAR-5 ovarian
[38] = test system: SNB-19 CNS
[39] = test system: MDA-MB-231 breast
[40] = test system: ACHN renal
[41] = test system: RXF 393 renal
[42] = test system: EKVX NSCLC
[43] = test system: LOX IMVI melanoma
[44] = test system: UO-31 renal
[45] = test system: CAKI-1 renal
[46] = test system: MDA-MB-435
[47] = test system: M14 melanoma
[48] = test system: NCI/ADR-RES ovarian
[49] = test system: SK-OV-3 ovarian
[50] = test system: COLO 205 colon
[51] = test system: HOP-92 NSCLC
[52] = test system: DU-145 prostate
[53] = test system: OVCAR-4 ovarian
[54] = test system: UACC-62 melanoma
[55] = test system: T-47D breast

Cc1ncc([N+](=O)[O-])n1CCNCCCn1ccnc1[N+](=O)[O-]
TGI [1]: > 100 µM | TGI [2]: > 100 µM | TGI [3]: > 100 µM | TGI [4]: > 100 µM | TGI [5]: > 100 µM | TGI [6]: > 100 µM | TGI [7]: > 100 µM | TGI [8]: > 100 µM | TGI [9]: > 100 µM | TGI [10]: > 100 µM | TGI [11]: > 100 µM | TGI [12]: > 100 µM | TGI [13]: > 100 µM | TGI [14]: > 100 µM | TGI [15]: > 100 µM | TGI [16]: > 100 µM | TGI [17]: > 100 µM | TGI [18]: > 100 µM | TGI [19]: > 100 µM | TGI [20]: > 100 µM | TGI [21]: > 100 µM | TGI [22]: > 100 µM | TGI [23]: > 100 µM | TGI [24]: > 100 µM | TGI [25]: > 100 µM | TGI [26]: > 100 µM | TGI [27]: > 100 µM | TGI [28]: > 100 µM | TGI [29]: > 100 µM | TGI [30]: > 100 µM | TGI [31]: > 100 µM | TGI [32]: > 100 µM | TGI [33]: > 100 µM | TGI [34]: > 100 µM | TGI [35]: > 100 µM | TGI [36]: > 100 µM | TGI [37]: > 100 µM

C=CC/C(=C\COP(=O)(OCc1ccc([N+](=O)[O-])o1)N(C)CCCCCl)CC/C=C(\C)CCC=C(C)C (configuration not stated)
GI50 [1]: 4.66 µM | TGI [1]: 19.3 µM | GI50 [2]: 17.3 µM | TGI [2]: > 100 µM | GI50 [4]: 13.6 µM | TGI [4]: 26.4 µM | GI50 [38]: 19.5 µM | TGI [38]: 34.9 µM | GI50 [5]: 11.6 µM | TGI [5]: 25.5 µM | GI50 [6]: 11 µM | TGI [6]: 23 µM | GI50 [8]: 3.46 µM | TGI [8]: 41.8 µM | GI50 [39]: 12.7 µM | TGI [39]: 34.1 µM | GI50 [9]: 8.03 µM | TGI [9]: 36.3 µM | GI50 [40]: 15.5 µM | TGI [40]: 30.2 µM | GI50 [10]: 0.0483 µM | TGI [10]: 15.9 µM | GI50 [12]: 12.6 µM | TGI [12]: 25.1 µM | GI50 [41]: 12.4 µM | TGI [41]: 24.9 µM | GI50 [13]: 22.5 µM | TGI [13]: 39.4 µM | GI50 [42]: 18.9 µM | TGI [42]: 35.7 µM | GI50 [43]: 13.8 µM | TGI [43]: 31.4 µM | GI50 [14]: 13.9 µM | TGI [14]: 26.9 µM | GI50 [44]: 12.6 µM | TGI [44]: 25.1 µM | GI50 [45]: 8.03 µM | TGI [45]: 21.2 µM | GI50 [17]: 9.44 µM | TGI [17]: 21.3 µM | GI50 [46]: 16.8 µM | TGI [46]: 44.1 µM | GI50 [47]: 4.04 µM | TGI [47]: 18.2 µM | GI50 [48]: 11.9 µM | TGI [48]: 24.1 µM | GI50 [18]: 2.56 µM | TGI [18]: 15.1 µM | GI50 [49]: 16 µM | TGI [49]: 30.6 µM | GI50 [20]: 9.94 µM | TGI [20]: > 100 µM | GI50 [22]: 12 µM | TGI [22]: 29 µM | GI50 [23]: 12 µM | TGI [23]: 24.3 µM | GI50 [50]: 20.4 µM | TGI [50]: 43.2 µM | GI50 [27]: 0.0171 µM | TGI [27]: 3.21 µM | GI50 [51]: 14.5 µM | TGI [51]: 27.6 µM | GI50 [52]: 11.6 µM | TGI [52]: 23.8 µM | GI50 [28]: 13.5 µM | TGI [28]: 29.1 µM | GI50 [53]: 17.2 µM | TGI [53]: 39.3 µM | GI50 [29]: 17.2 µM | TGI [29]: 32.9 µM | GI50 [30]: 21.9 µM | TGI [30]: > 100 µM | GI50 [31]: 83.8 µM | TGI [31]: > 100 µM | GI50 [54]: 13.8 µM | TGI [54]: 26.7 µM | GI50 [32]: 13.6 µM | TGI [32]: 26.4 µM | GI50 [55]: 20.6 µM | TGI [55]: 53.9 µM | GI50 [33]: 3.76 µM | TGI [33]: 18 µM | GI50 [34]: 13.2 µM | TGI [34]: 25.9 µM | GI50 [35]: 16.5 µM | TGI [35]: 30 µM | GI50 [36]: 12.8 µM | TGI [36]: 30.4 µM | GI50 [37]: 15.7 µM | TGI [37]: 29 µM
